The target in data set [1] is lethal factor (LF) (Bacillus anthracis, UniProt P15917). Briefly: biochemical. The data set is classed as biochemical.
A short description of data set [2]: in vitro. The following applies: microsomes.
For data set [3], the system named is LF cleavage of MEK1 in HeLa cells. The class given is cell-based, Human.
For data set [4] the following is noted: microsomes.
For data set [5], the system named is RAW 264.7 macrophages, LF/PA induced cell death. Briefly: cells. The class given is cell-based, Murine. The following applies: Mus musculus, RAW264.7, 4 h, read-out: EC50 (macrophage assay).
The test system of data set [6] is Bacillus anthracis Sterne spores. Also on record: species or system A/J mice. The following applies: mouse, in vivo.

Entries after “also recorded” stand apart in the source; their conditions may differ.

lethal factor (LF), sequence (P15917 34-809 limits assumed): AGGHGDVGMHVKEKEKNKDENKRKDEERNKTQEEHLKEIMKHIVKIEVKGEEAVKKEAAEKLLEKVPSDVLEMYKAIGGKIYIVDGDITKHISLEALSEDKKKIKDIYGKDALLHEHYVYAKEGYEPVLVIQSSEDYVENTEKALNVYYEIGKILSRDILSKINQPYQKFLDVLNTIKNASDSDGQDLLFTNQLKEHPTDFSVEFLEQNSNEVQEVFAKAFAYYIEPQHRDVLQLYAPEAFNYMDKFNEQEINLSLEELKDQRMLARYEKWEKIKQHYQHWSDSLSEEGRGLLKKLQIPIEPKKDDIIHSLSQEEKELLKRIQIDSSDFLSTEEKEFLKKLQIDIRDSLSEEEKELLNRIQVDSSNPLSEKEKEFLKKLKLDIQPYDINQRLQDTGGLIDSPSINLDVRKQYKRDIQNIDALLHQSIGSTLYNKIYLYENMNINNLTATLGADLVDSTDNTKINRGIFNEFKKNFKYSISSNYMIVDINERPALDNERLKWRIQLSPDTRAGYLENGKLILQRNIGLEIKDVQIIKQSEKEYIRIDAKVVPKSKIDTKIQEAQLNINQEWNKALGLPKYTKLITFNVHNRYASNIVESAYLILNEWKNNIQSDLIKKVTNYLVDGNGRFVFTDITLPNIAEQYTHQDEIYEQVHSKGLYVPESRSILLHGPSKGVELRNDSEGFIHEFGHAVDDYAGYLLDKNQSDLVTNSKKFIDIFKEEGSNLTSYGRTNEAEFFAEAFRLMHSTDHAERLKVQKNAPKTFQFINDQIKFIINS

Regarding `O=S(=O)(Nc1sc2c(c1-c1nc3ccccc3s1)CCCC2)c1ccc(-c2ccc(Cl)cc2)cc1` [Compound 106], the IC50 (usually the point on the concentration scale where inhibition reaches its midpoint) in data set [1] is greater than 50 µM.

Turning to `O=S(=O)(Nc1sccc1-c1nc2ccccc2s1)c1ccc(-c2ccc(Cl)cc2)cc1` [Compound 71], the Pampa entry is “Low”. The half-life (usually the time needed for the level to fall by half in the phase considered) in data set [2] is greater than 2 h.

For the compound `Cc1cc(S(=O)(=O)N[C@H](C(=O)NO)C2CCOCC2)ccc1F` [Compound 7], the “protection of HeLa cells against LF cleavage of MEK1” value (shortened to “protection of HeLa cells”) in data set [3] was “effective”.

`O=S(=O)(Nc1sccc1-c1nc2ccccc2s1)c1cc(OCC(F)(F)F)ccc1OCC(F)(F)F` [Compound 56, N-(3-(benzo[d]thiazol-2-yl)thiopen-2-yl)-2,5-bis(2,2,2-trifluoroethoxy)benzenesulfonamide]: the IC50 in data set [1] came to 39 µM.

As to `CNC(=O)[C@H](Cc1c[nH]c2ccccc12)NC(=O)[C@@H](CC(=O)NO)CC(C)C` [Inhibitor 1, Ilomastat], the “protection of HeLa cells” value in data set [3] is on record as “effective”.

In the case of `COc1ccc(-c2ccc(S(=O)(=O)Nc3sc4c(c3-c3nc5ccccc5s3)CCCC4)cc2)cc1` [Compound 105], in data set [1], the IC50 was greater than 50 µM.

Take `COc1ccc(-c2ccc(S(=O)(=O)Nc3sccc3-c3nc4ccccc4s3)cc2)cc1` [Compound 70]: the Pampa result is given as “Low”. For the same compound, the “Metabolic stability Hept. CLint” value in data set [4] was “t1/2= >120min CLint= 3.6”. In addition, in data set [3], the “protection of HeLa cells” value is listed as “effective”. In addition, the half-life in data set [2] was greater than 2 h. In data set [5], the EC50 (commonly the midpoint of the concentration-response curve) worked out at 0.561 µM. Further, in data set [6], the “survival of infected mice versus DMSO control” value is recorded as “a little more effective in protecting the mice; also recorded: best survival”.

The compound `CSc1nccc(-c2ccc(S(=O)(=O)Nc3sccc3-c3nc4ccccc4s3)s2)n1` [Compound 99, N-(3-(benzo[d]thiazol-2-yl)thiophen-2-yl)-5-(2-(methylthio)pyrimidin-4-yl)thiophene-2-sulfonamide] had an IC50 in data set [1] of 18 µM.

`Cc1csc(NS(=O)(=O)c2ccc([N+](=O)[O-])cc2)c1-c1nc2ccccc2s1` [Compound 17, N-(3-(benzo[d]thiazol-2-yl)-4-methylthiophen-2-yl)-4-nitrobenzenesulfonamide]: the Pampa entry is on record as “High”. In addition, the “Metabolic stability Hept. CLint” value in data set [4] is on record as “t1/2= >120min CLint= 0.6”. For the same compound, in data set [2], the half-life was greater than 2 h.

With `Nc1sccc1-c1nc2ccccc2s1` [Compound 42, reference compound], the “inhibitory activity against LF (in words)” value in data set [1] is “essentially inactive”.

`O=S(=O)(Nc1sccc1-c1nc2ccccc2s1)c1ccc2ncsc2c1` [Compound 92, N-(3-(benzo[d]thiazol-2-yl)thiophen-2-yl)benzo[d]thiazole-6-sulfonamide]: the Pampa result is recorded as “High”. The “Metabolic stability Hept. CLint” value in data set [4] is given as “t1/2= >120min CLint= 3.9”. Besides, in data set [2], the half-life was greater than 2 h.

For `Cc1ccc(S(=O)(=O)Nc2sccc2-c2nc3ccccc3s2)cc1Cl` [Compound 55, N-(3-(benzo[d]thiazol-2-yl)thiophen-2-yl)-3-chloro-4-methylbenzenesulfonamide], the Pampa entry is listed as “High”. In data set [2], this compound showed a half-life greater than 2 h. In data set [6], the “survival of infected mice versus DMSO control” value is given as “slight improvement in comparison to the control”.

These data come from article PMC2730741 (Bioorganic & medicinal chemistry, 2009).
